≈ marks a conversion by molar mass, not a printed value. Where a name gives a salt, the structure may show the parent alone. Read-outs that look alike come from different tables or passages of the source.
Tests used:
HIV pol protease = HIV pol protease (Human immunodeficiency virus type 1 group M subtype B, UniProt P03366); assay: Assay of the inhibition of HIV pol protease (synthetic substrate TE-2, HPLC of TE-3)
Method: The Ki, that is the dissociation constant of the enzyme-inhibitor complex, measured according to the equation [formula]
A reaction mixture containing 1 mM or 1.5 mM of the substrate TE-2, having the structure described in European Patent Publication No. 498,680, 1 μl of the desired concentration of the compound to be tested (dissolved in dimethyl sulfoxide comprising 20% v/v water), 2 μl of the enzyme solution prepared as described in step (c), above, and buffer solution [50 mM tris HCl (pH 6.0), 0.25M sodium chloride, 0.1 mM ethylenediaminetetraacetic acid, 0.1 mM Triton X-100] to form 10 μl in total, was incubated for 30 minutes at 37° C.
The reaction was Stopped by the addition of 250 μl of a 0.1% w/v solution of aqueous trifluoroacetic acid and 10% v/v acetonitrile. The reaction mixture was then subjected to Sep-pak light™ chromatography (Waters Co., Milford, Mass., USA), and the fractions passing through the column were collected.
The substrate TE-2 is decomposed by the HIV protease to form a shortened peptide of four amino acids, (TE-3; having the structure described in European Patent Publication No. 498,680). The amount of TE-3 formed was assayed quantitatively using a high performance liquid chromatography (HPLC) column [ODS-120T (Trade Mark), 4.6 mm in inner diameter ×250 mm, To-So Co.] using a mixture of 9% acetonitrile-0.05% trifluoroacetic acid as the eluting solvent.
The Ki in nM was calculated according to the method of Michaelis-Menten using the equation given above.

Molt 4/HTLV IIIB = assay: Inhibition of the release of virus from Molt 4 cells chronically infected with HIV; type: cell-based, HIV (HTLVIIIB)
Method: Inhibition of the Release of Virus from Molt 4 Cells Chronically Infected with HIV (Molt 4/HTLV IIIB)
A Molt 4 cell line chronically infected with HIV, that is with HTLVIIIB, was established (Molt 4/HTLVIIIB). The cells were washed twice with growth medium (RPMI-1640 medium containing 10% v/v heat-inactivated fetal calf serum). The washed cells were then inoculated into growth medium at a density of 2×10^5 cells/ml, in the presence of selected concentrations of test compounds, at 37° C., and cultured under an atmosphere of 5% carbon dioxide.
After 48 hours, the test cultures were spun down at 1000×g for 3 minutes, and the supernatant was collected. Polyethylene glycol 6000 was added to the supernatant to a final concentration of 10% w/v, and the resulting solution was left to stand for 6 hours on ice. Virions precipitated by this procedure were subsequently obtained as a pellet by centrifuging the treated supernatants for 30 minutes at 10000×g. The amount of HIV antigen in the pellets was then determined using a commercial enzyme immunoassay (EIA) system [HIV antigen EIA kit, available from Abbot].
IC50 (the minimum concentration of test compound sufficient to reduce the amount of HIV antigen production by 50%, as determined by the EIA system) was used as a measure of anti-HIV activity.

| SMILES | Ki (HIV pol protease) | also measured |
| --- | --- | --- |
| CC(C)(C)NC(=O)[C@@H]1C[C@@H](O)CN1C(=O)[C@@H](O)[C@H](Cc1ccccc1)NC(=O)[C@H](CC(N)=O)NC(=O)OCc1ccccc1 [Example 4, (4R)-1-[(2S,3S)-3-(N^2 -Benzyloxycarbonyl-L-asparaginyl)amino-2-hydroxy-4-phenylbutyryl]-N-t-butyl-4-hydroxy-L-prolinamide] | 0.056 µM |  |
| CNc1ccc(OCC(=O)N[C@@H](CC(N)=O)C(=O)N[C@@H](Cc2ccccc2)[C@H](O)C(=O)N2CCC[C@H]2C(=O)NC(C)(C)C)cc1 [Example 20, 1-[(2S,3S)-3-{N^2-[4-(Methylamino)phenoxyacetyl]-L-asparaginyl}amino-2-hydroxy-4-phenylbutyryl]-N-t-butyl-L-prolinamide hydrochloride] | 0.049 µM |  |
| CC(C)(C)NC(=O)[C@@H]1CCCN1C(=O)[C@@H](O)[C@H](Cc1ccccc1)NC(=O)[C@H](CC(N)=O)NC(=O)COc1ccc(N)cc1 [Example 17, 1-{(2S,3S)-3-[N^2-(4-Aminophenoxyacetyl)-L-asparaginyl)amino-2-hydroxy-4-phenylbutyryl]-N-t-butyl-L-prolinamide hydrochloride] | 0.0185 µM |  |
| CN(C)c1ccc(OCC(=O)N[C@@H](CC(N)=O)C(=O)N[C@@H](Cc2ccccc2)[C@H](O)C(=O)N2CCC[C@H]2C(=O)NC(C)(C)C)cc1 [Example 21, 1-[(2S,3S)-3-{N^2-[4-(N,N-Dimethylamino)phenoxyacetyl]-L-asparaginyl}amino-2-hydroxy-4-phenylbutyryl]-N-t-butyl-L-prolinamide] | 0.037 µM |  |
| CC(C)(C)NC(=O)[C@@H]1C[C@H](Cl)CN1C(=O)[C@@H](O)[C@H](Cc1ccccc1)NC(=O)[C@H](CC(N)=O)NC(=O)OCc1ccccc1 [Example 1, (4S)-1-[(2S,3S)-3-(N^2 -Benzyloxycarbonyl-L-asparaginyl)amino-2-hydroxy-4-phenylbutyryl]-N-t-butyl-4-chloro-L-prolinamide] | 0.008 µM |  |
| CC(C)(C)NC(=O)[C@@H]1CCCN1C(=O)[C@@H](O)[C@H](Cc1ccccc1)NC(=O)[C@H](CC(N)=O)NC(=O)COc1ccc(NC(=O)CN)cc1 [Example 18, 1-[(2S,3S)-3-{N^2-[4-(Glycylamino)phenoxyacetyl]-L-asparaginyl}amino-2-hydroxy-4-phenylbutyryl]-N-t-butyl-L-prolinamide hydrochloride] | 0.03 µM |  |
| CC(C)(C)NC(=O)[C@@H]1C[C@H](Cl)CN1C(=O)[C@@H](O)[C@H](Cc1ccccc1)NC(=O)[C@H](CC(N)=O)NC(=O)c1cnc2ccccc2n1 [Example 14, (4S)-1-{(2S,3S)-3-[N^2-(2-Quinoxalinecarbonyl)-L-asparaginyl]amino-2-hydroxy-4-phenylbutyryl}-N-t-butyl-4-chloro-L-prolinamide] | 0.0047 µM | IC50 (Molt 4/HTLV IIIB; Human immunodeficiency virus 1, IIIB, MOLT-4, 48 h, read-out: IC50 (concentration reducing HIV antigen production by 50%)): 0.39 mg/L (≈ 0.598 µM) |
| CC(C)(C)NC(=O)[C@@H]1C[C@@H]2CCCC[C@@H]2CN1C[C@@H](O)[C@H](Cc1ccccc1)NC(=O)[C@H](CC(N)=O)NC(=O)c1ccc2ccccc2n1 [Ro31-8959, 3-t-butylaminocarbonyl-2-{(2R, 3S)-3-[(N-2'-quinolinecarbonyl-L-asparaginyl)amino]-2-hydroxy-4-phenylbutyl}-(3S, 4aS, 8aS)-decahydroisoquinoline, reference compound] |  | IC50 (concentration reducing HIV antigen production by 50%) (Molt 4/HTLV IIIB; Molt 4/HTLVIIIB cells, 48 hours, HIV antigen in precipitated virions by EIA): > 20.0 mg/L; Ki (HIV pol protease; 1 mM or 1.5 mM substrate TE-2, pH 6.0, 30 minutes at 37° C., calculated by Michaelis-Menten): 0.058 µM |
| CC(C)(C)NC(=O)[C@@H]1CCCN1C(=O)[C@@H](O)[C@H](Cc1ccccc1)NC(=O)[C@H](CC(N)=O)NC(=O)COc1ccc(NC(=O)OCc2ccccc2)cc1 [Example 16, 1-[(2S,3S)-3-{N^2-[4-(Benzyloxycarbonylamino)phenoxyacetyl]-L-asparaginyl}amino-2-hydroxy-4-phenylbutyryl]-N-t-butyl-L-prolinamide] | 0.014 µM |  |

Source: patent US5629406A, “Inhibitors of HIV protease” (Sankyo Company, Limited, priority 1992, dated 1997)
